# Laboratory results from patent US4820726A, “Oxaloamino substituted fluorinated resorcinol ethers and anti-allergic and anti-inflammatory use thereof” (Ciba-Geigy Corporation, priority 1985, dated 1989).
# Tests used:
# [1] = biological target: phospholipase A2 from human leucocytes; test: In vitro test for the determination of the inhibition of phospholipase A2 from human leucocytes; assay type: biochemical; conditions: enzyme from human leucocytes, 14C-oleic acid labelled E. coli phospholipids, pH 7, 37° C., 1 hour; read-out: IC50, concentration which causes an inhibition of 50% of the control activity of phospholipase A2
# From the text: In vitro test for the determination of the inhibition of phospholipase A2 from human leucocytes
# Neutrophilic polymorphonuclear human leucocytes are isolated, starting from "buffy coats" by multi-stage fractional sedimentation and are deep-frozen.The phospholipase A2 is extracted from the cell suspension by homogenisation with the addition of ice-cold 0.36N H2 SO4 in 2M NaCl, and the supernatant obtained after centrifugation at 10,000 g is dialysed against sodium acetate buffer, pH 4.5.
# To determine the enzyme activity, the enzyme (10-30 μg of protein) is incubated in 0.1M tris/HCl buffer, pH 7, with the addition of 1 mM CaCl2 and substrate consisting of phospholipids (2 μM), radioactively labelled biosynthetically with ^14 C-oleic acid, of Escherichia coli, at 37° C. for 1 hour. The reaction is stopped by addition of Dole reagent (isopropanol/heptane/1N H2 SO4 40:10:1, volume/volume) and the ^14 C-oleic acid released selectively by phospholipase A2 is extracted. The substrate also co-extracted is removed completely by filtration of the extract through a silica gel column. The ^14 C-oleic acid in the eluate is determined by radiometry.
# To determine an inhibiting effect of test substances on the phospholipase A2, these are added to the incubation batch as solutions in water, dimethylsulfoxide (final concentration in the batch up to 5 vol %) or ethanol (final concentration in the batch up to 2.5 vol %). The action potency of the test substances is expressed by the IC50, i.e. the concentration which causes an inhibition of 50% of the control activity. The IC50 is determined graphically by plotting the percentage inhibition on the ordinate against the logarithm of the concentration (μM) on the abscissa.
# [2] = system: LTD4 -induced contractions of the guinea-pig ileum; test: Inhibiting effect on LTD4-induced contractions of the guinea-pig ileum; assay type: cell-based; conditions: Cavia porcellus; isolated guinea-pig ileum, Tyrode solution, 38° C.; read-out: IC50, concentration which reduces LTD4 -induced contractions to 50% of the starting value
# Description: Thus, they have an antiallergic action based on a pronounced LTD4 -(leucotriene-D4)- and PAF-(PAF-acetoether)-antagonism.
# Inhibiting effect on LTD4 -induced contractions of the guinea-pig ileum
# Contractions are triggered off by synthetic LTD4 (leucotriene D4, potassium salt) on ileum segments which have been taken from guinea-pigs with a body weight of 300 to 400 g, fixed in an organ bath in Tyrode solution (38° C., gassing with 95% of O2 and 5% of CO2) and loaded with […], and the degree of the contractions is recorded. The degree of inhibition of these contractions to be attributed to the LTD4 -antagonistic action of the test substance is measured. The concentration, designated the IC50, of the test substance which reduces LTD4 -induced contractions to 50% of the starting value is determined.
Structure (SMILES),IC50 [1] [µM],IC50 [2] [µM]
"CCCc1c(OCC(O)COc2cccc(NC(=O)C(=O)O)c2C#N)ccc(C(C)=O)c1O (centres unmarked) [N-{3-[3-(4-acetyl-3-hydroxy-2-propyl-phenoxy)-2-hydroxypropoxy]-2-cyano-phenyl}-oxamic acid, reference compound]",> 100,0.087
"CC(=O)c1ccc(OCCCOc2cc(NC(=O)c3nnn[nH]3)c(C)cc2Cl)c(CCC(F)(F)F)c1O [N-{{3-{3-[4-acetyl-3-hydroxy-2-(3,3,3-trifluoropropyl)-phenoxy]-propoxy}-4-chloro-6-methyl-phenyl}}-1H-tetrazole-5-carboxamide]",13,–
"CC(=O)c1ccc(OCCCOc2cc(NC(=O)c3nnn[nH]3)c(C)cc2Br)c(CCC(F)(F)F)c1O [N-{{3-{3-[4-acetyl-3-hydroxy-2-(3,3,3-trifluoropropyl)phenoxy]-propoxy}-4-bromo-6-methyl-phenyl}}-1H-tetrazole-5-carboxamide]",12,0.01
